Tests used:
[1] = system: High-Cholesterol Diet-Fed Rats; assay: Example 1: combined effect of compound A and ezetimibe, plasma HDL-C; format: in vivo, SD rats; details: for HDL-C Ave.: plasma, oral once a day, one week; for HDL-C Rate of Change: vs control
Experimental: The synergistic effect was determined by using Burgi's formula (if the relative level in the combined group is larger than the value of the product of the relative level of single agent A and the relative level of single agent B, the synergistic effect is positive).
(§1) Group 2: Compound A 0.1 mg/kg
Group 3: Ezetimibe 0.003 mg/kg
Group 4: Compound A 0.1 mg/kg and ezetimibe 0.003 mg/kg
(§2) The results were shown as the mean±standard deviation.

[2] = system: High-Cholesterol Diet-Fed Rats; assay: Example 2: combined effect of compound A and ezetimibe, plasma TC and lipoprotein cholesterol; format: in vivo, SD rats
Experimental: The synergistic effect was determined by using Burgi's formula (in a case where a level lower than that in the control group is indicated in a drug administration group, that is, when the evaluation of an agent to the TC, VLDL-C, or LDL-C is performed, if the relative level in the combined group is smaller than the value of the product of the relative level of single agent A and the relative level of single agent B, the synergistic effect exists. In a case where a level higher than that in the control group is indicated in a drug administration group, that is, when the evaluation of an agent to the HDL-C is performed, if the relative level in the combined group is larger than the value of the product of the relative level of single agent A and the relative level of single agent B, the synergistic effect exists).
as §1
Group 3: Ezetimibe 0.01 mg/kg […]
Group 5: Ezetimibe 0.1 mg/kg […]
as §2

Row | Compound | Effect on HDL-C level ([1]; Compound A 0.1 mg/kg alone) | HDL-C relative level to the control group ([1]; Compound A 0.1 mg/kg alone) | HDL-C Ave. ([1]; Compound A 0.1 mg/kg alone) | HDL-C Rate of Change ([1]; Compound A 0.1 mg/kg alone) | HDL-C Relative Level (to Control) ([2]; Compound A 0.1 mg/kg alone) | LDL-C Relative Level (to Control) ([2]; Compound A 0.1 mg/kg alone) | TC Relative Level (to Control) ([2]; Compound A 0.1 mg/kg alone) | VLDL-C Relative Level (to Control) ([2]; Compound A 0.1 mg/kg alone) | Effect on HDL-C level ([1]; Ezetimibe 0.003 mg/kg alone) | HDL-C relative level to the control group ([1]; Ezetimibe 0.003 mg/kg alone) | HDL-C Ave. ([1]; Ezetimibe 0.003 mg/kg alone) | HDL-C Rate of Change ([1]; Ezetimibe 0.003 mg/kg alone) | HDL-C Relative Level (to Control) ([2]; Ezetimibe 0.01 mg/kg alone) | LDL-C Relative Level (to Control) ([2]; Ezetimibe 0.01 mg/kg alone) | TC Relative Level (to Control) ([2]; Ezetimibe 0.01 mg/kg alone) | VLDL-C Relative Level (to Control) ([2]; Ezetimibe 0.01 mg/kg alone) | HDL-C Relative Level (to Control) ([2]; Ezetimibe 0.1 mg/kg alone) | LDL-C Relative Level (to Control) ([2]; Ezetimibe 0.1 mg/kg alone) | TC Relative Level (to Control) ([2]; Ezetimibe 0.1 mg/kg alone) | VLDL-C Relative Level (to Control) ([2]; Ezetimibe 0.1 mg/kg alone)
1 | CC[C@@H](Oc1cccc(CN(CCCOc2ccc(OC)cc2)c2nc3ccccc3o2)c1)C(=O)O [Compound A, (R)-2-[3-[[N-(benzoxazol-2-yl)-N-3-(4-methoxyphenoxy)propyl]aminomethyl]phenoxy]butyric acid] | apparent effects were not recognized | 1.010 | 24.3 | 1.0% | 1.021 | 0.971 | 0.956 | 0.827 |  |  |  |  |  |  |  |  |  |  |  | 
2 | O=C1[C@H](CC[C@H](O)c2ccc(F)cc2)[C@@H](c2ccc(O)cc2)N1c1ccc(F)cc1 [Ezetimibe, (3R,4S)-1-(4-fluorophenyl)-3-{(3S)-3-(4-fluorophenyl)-3-hydroxypropyl}-4-(4-hydroxyphenyl)azetidin-2-one] |  |  |  |  |  |  |  |  | apparent effects were not recognized | 1.022 | 24.6 | 2.2% | 0.910 | 0.955 | 0.898 | 0.719 | 1.100 | 0.720 | 0.555 | 0.262
